Assay results as given in patent US10264976B2, “Biocompatible flavonoid compounds for organelle and cell imaging” (The University of Akron, priority 2015, dated 2019).

Assays:
[1] = test system: mitochondria in CCCP-treated hMSCs; experiment: Effects of CCCP on uptake of dyes; assay type: cell-based, human; conditions: for specificity to mitochondria after CCCP treatment / uptake / imaging signal (sensitivity) after CCCP treatment: hMSCs pre-treated with 10 μM CCCP for 30 min, 5 μM dye, 25 nM MT, 25 min
Source text: Mitochondria can continuously oxidize substrates and maintain a proton gradient across the lipid bilayer with very large membrane potential (−180 mV). The membrane potential as the major driving force enables the entrance and accumulation of the cationic species into mitochondria rather than cell plasma. CCCP is an uncoupler that causes rapid acidification of mitochondria and dysfunction of ATP synthase resulting in the decrease of mitochondrial membranes potential. To confirm the tolerances of MC-Mito1 and MC-Mito2, carbonyl cyanide m-chlorophenylhydrazone (CCCP) was used to treat the cells prior to the staining procedure.
It was expected because CCCP-induced decrease of membranes potential will severely affect the direction and accumulation of cationic mitochondrial probes. The most of commercial mitochondrial probes are suffered by the similar limitation. […] Compared with MC-Mito1, MC-Mito2 has longer hydrophobic linker between the flavone dye and the cation. Since mitochondrial membrane is composed of phospholipid bilayers and proteins, the stronger lipophilicity has been supposed to play an important role in retaining the specificity of MC-Mito2 in CCCP-treated cells.
The hMSCs were treated with 10 μM carbonyl cyanide m-chlorophenylhydrazone (CCCP) for 30 min. and then were washed with fresh medium. After that, the cells were incubated with 5 μM MC-Mito1 and 25 nM MT, 5 μM MC-Mito2 and 25 nM MT for 25 min at 37° C., respectively. After staining, the cells were imaged by microscope without PBS solution washing procedure.

mitochondria in hMSCs = experiment: Co-staining with Mitotracker red CMXRos (subcellular distribution); assay type: cell-based, human; conditions: 5 μM dye and 25 nM MT, 25 min
Experimental: To determine the subcellular distribution of the probes in living cells, the MT were co-incubated with MC-Mito1 and MC-Mito2, respectively. […] Despite that the decrease of membranes potential will severely affect the direction and accumulation of cationic mitochondrial probes.
Human mesenchymal stem cells (hMSCs) (Lonza, Walkersville, Md.) were cultured in serum-containing MSCBM medium (Lonza) supplemented with MSCGM SingleQuots (Lonza) according to manufacturer's specifications. hMSCs (Passage 5) were seeded at a density of 5.0×10^4 cell/cm^2. For co-staining experiments, the hMSCs were seeded on 12-well plate, cultured in MSCBM medium (Lonza) supplemented with MSCGM SingleQuots (Lonza), and incubated with 5 μM MC and 25 nM Mitotracker® red CMXRos (MT), 5 μM MC-Br and 25 nM MT, 5 μM MC-Mito1 and 25 nM MT, 5 μM MC-Mito2 and 25 nM MT for 25 min at 37° C., respectively. Each well contains 1 ml of medium and 0.05 ml DMSO (dissolving probe). The cell imaging was obtained on a Zeiss inverted fluorescence microscopy with X-Cite Series 120Q. The blue channel filter: excitation 365 nm, beam splitter FT 395 nm, emission 445/50 nm. The green channel filter: excitation 450-490 nm, beam splitter FT 510 nm, emission 515-565 nm. The red channel filter: excitation 587/25 nm, beam splitter FT 605 nm, emission 647/70 nm.

[2] = Fluorescence quantum yield (rhodamine 6G standard); assay type: physicochemical; conditions: rhodamine 6G in ethanol as reference; reported after BSA addition experiment
Source text: The fluorescence quantum yields were obtained using rhodamine 6G (sigma) as the standard (Φfl=0.95, ethanol). The fluorescence quantum yields can be calculated by using the following Eq: Φs=Φr×(Ar×ns^2×Fs)/(As×nr^2×Fr) where the subscripts s and r refer to the sample and the standard, respectively. Φ is the quantum yield, F is the integrated emission intensity, A is the absorbance, and n is the refractive index. Zebrafish Breeding and Imaging

[3] = UV absorption and fluorescence spectra of the dyes; conditions: for Stokes shift: in DMSO; for absorption maxima / emission maxima: in DMSO solution
[4] = target: bovine serum albumin (BSA) (Bos taurus, UniProt P02769); experiment: Fluorescence response upon addition of bovine serum albumin; assay type: binding; conditions: 2 equivalents of BSA; 2 μM probe, 1 mM HEPES buffer (1% DMSO); at 495 nm (MC-Mito1) / 490 nm (MC-Mito2)
bovine serum albumin (BSA), sequence (P02769 25-607): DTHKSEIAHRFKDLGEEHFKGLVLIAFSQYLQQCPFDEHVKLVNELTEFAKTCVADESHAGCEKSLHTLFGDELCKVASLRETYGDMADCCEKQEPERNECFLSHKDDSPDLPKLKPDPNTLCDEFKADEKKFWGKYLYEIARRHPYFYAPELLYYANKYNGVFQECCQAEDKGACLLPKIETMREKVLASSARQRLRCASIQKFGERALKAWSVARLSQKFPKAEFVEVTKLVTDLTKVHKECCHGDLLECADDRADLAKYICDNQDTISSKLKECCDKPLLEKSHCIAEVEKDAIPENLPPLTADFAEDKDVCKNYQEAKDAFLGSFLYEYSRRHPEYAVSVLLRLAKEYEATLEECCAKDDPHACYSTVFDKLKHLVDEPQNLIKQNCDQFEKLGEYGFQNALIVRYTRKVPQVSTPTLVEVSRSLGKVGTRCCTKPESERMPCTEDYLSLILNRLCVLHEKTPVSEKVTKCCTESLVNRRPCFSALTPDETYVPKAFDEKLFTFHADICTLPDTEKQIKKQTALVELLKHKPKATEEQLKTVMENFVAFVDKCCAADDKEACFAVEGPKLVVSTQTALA
Experimental: FIG. 4B provides a graph showing the fluorescence intensity changes of MC-Mito1 in the presence of increasing concentrations of BSA in 1 mM HEPES buffer (1% DMSO). [MC-Mito1]=[MC-Mito2]=2 μM, [BSA]=0˜4 μM. λex=400 nm.
FIG. 11 is a chart showing fluorescence spectra of DMAF ([DMAF]=10 μM, 1 mM HEPES buffer containing 1% DMSO, pH=7.4) upon addition of different concentration of BSA ([BSA]=0-10 μM, 1 mM HEPES).
MC-Mito1 and MC-Mito2 were nearly non-fluorescent in water (QYs <1%), due to specific H-bonding interaction of water solvents with H-bond acceptor carbonyl groups in flavone skeleton. However, upon addition of bovine serum albumin (BSA) into probe water solution, the fluorescence intensity increased sharply (FIG. 4A-D). After addition of 2 equivalent of BSA, the fluorescence intensity of MC-Mito1 at 495 nm was enhanced by about 17-fold, which was accompanied with a large blue-shift (from 540 nm to 495 nm, FIGS. 4A and 4B). […] By using rhodamine 6G in ethanol (QY=95%) as a reference, the fluorescence quantum yield (QY) of MC-Mito1 and MC-Mito2 were determined to be 28% and 33%, respectively. […] The high signal-to-noise ratio (>10) enables the simple wash-free in vivo fluorescence imaging. […]

hMSCs [5] = experiment: Cytotoxicity determined by MTT method; assay type: cell-based, human; conditions: for cell viability: hMSCs, 0, 2, 5, 10 μM, 24 h
Experimental: Before the application for cell imaging, the cytotoxicity of MC-Mito1 and MC-Mito2 were evaluated by the widely used MTT assay to evaluate the tolerance of sensors to their working concentrations. The samples were incubated with 0, 2, 5, 10 μM MC-Mito1, MC-Mito2 and Mitotracker® red CMXRos (MT) for 24 h, respectively (FIG. 5). […] In contrast, only less than 10% of the cells were viable after incubation with 5 μM of commercial mitochondrial dye MT for 24 hours. […] The hMSCs were seeded in 12-well plates at a density of 5.0×10^4 cell/cm^2. After 24 h incubation, the cells were exposed to a series of doses of probe MC-Mito1 or MC-Mito2, and MT at 37° C. The concentration of MT (0, 2, 5, 10 μM) was similar as reported in literature.^28 After 24 hours, MTT solution (sigma) was added and kept 3 h in the incubator. MTT solubilization solution was then added into each well and the plate was gently shaken for 10 min at room temperature. The absorbance of MTT in the sample well was determined by subtracting the absorbance of the sample well from corresponding control well. Cell viability was expressed by the ratio of the absorbance of MTT in the sample wells to that of the cells incubated with culture medium only.

hMSCs [6] = experiment: Cell staining efficiency without washing process; assay type: cell-based, human
Experimental: To assess their cell staining efficiencies, the hMSCs cells were incubated with MT, MC-Mito1 and MC-Mito2, respectively. Cell staining was continuously recorded in 3 min, 10 min and 25 min without washing process. It was found MC-Mito1 and MC-Mito2 quickly stained the living cells in 10 mins. In contrast, the MT acquired longer time to efficiently stain cells. The fluorescence signal of MC-Mito1 and MC-Mito2 from the ‘blue channel’ on fluorescence microscope (420-470 nm) were confined in cells with a negligible background signal from the culture medium, supporting the hypothesis that the flavone dyes gave higher emission in low-polar environment. Generally, the S/N ratios in fluorescent images were above 3, which could be considered acceptable for the discrimination of mitochondria. Therefore, this wash-free method could be a useful probe for real-time monitor of mitochondrial changes.
Human mesenchymal stem cells (hMSCs) (Lonza, Walkersville, Md.) were cultured in serum-containing MSCBM medium (Lonza) supplemented with MSCGM SingleQuots (Lonza) according to manufacturer's specifications. hMSCs (Passage 5) were seeded at a density of 5.0×10^4 cell/cm^2. […] The cell imaging was obtained on a Zeiss inverted fluorescence microscopy with X-Cite Series 120Q. […]

Structure (SMILES) | co-localization with MT (mitochondria) (mitochondria in hMSCs) | fluorescence quantum yield (QY) [2] | Stokes shift [3] | absorption maxima [3] | emission maxima [3] | fluorescence intensity enhancement [4] | specificity to mitochondria after CCCP treatment [1] | uptake / imaging signal (sensitivity) after CCCP treatment [1] | cell viability (hMSCs [5]) | other results
N#CC(C#N)=NNc1cccc(Cl)c1 [CCCP, carbonyl cyanide m-chlorophenylhydrazone, reference compound] | – | – | – | – | – | – | – | – | – | mitochondrial morphology ([1]; hMSCs, 10 μM CCCP for 30 min): mostly transformed to small and dispersed fragments
O=c1c(O)c(-c2ccc(N3CCOCC3)cc2)oc2ccccc12 [MC, 3-hydroxy-2-(4-morpholinophenyl)-4H-chromen-4-one] | almost no co-localization with MT | – | – | – | – | – | – | – | – | –
O=c1c(OCCCCCCBr)c(-c2ccc(N3CCOCC3)cc2)oc2ccccc12 [MC-Br, 3-(6-bromohexyloxy)-2-(4-morpholinophenyl)-4H-chromen-4-one] | almost no co-localization with MT | – | – | – | – | – | – | – | – | –
O=c1c(OCCC[P+](c2ccccc2)(c2ccccc2)c2ccccc2)c(-c2ccc(N3CCOCC3)cc2)oc2ccccc12.[Br-] [MC-Mito1, (3-(2-(4-morpholinophenyl)-4-oxo-4H-chromen-3-yloxy)propyl)triphenylphosphonium bromide] | matched those stained with MT (red channel) very well | 28% | ~127 nm | 373 nm | 500 nm | about 17 fold | almost no more specificity to mitochondria | extremely weaker imaging signal than that in normal cells | ~100% | –
O=c1c(OCCCCCC[P+](c2ccccc2)(c2ccccc2)c2ccccc2)c(-c2ccc(N3CCOCC3)cc2)oc2ccccc12.[Br-] [MC-Mito2, (6-(2-(4-morpholinophenyl)-4-oxo-4H-chromen-3-yloxy)hexyl)triphenylphosphonium bromide] | matched well with MT | 33% | ~127 nm | 373 nm | 500 nm | about 55 fold | perfectly retained | perfectly retained | ~100% | –
ClCc1ccc(C2=c3cc4c5c(c3Oc3c2cc2c6c3CCCN6CCC2)CCC[N+]=5CCC4)cc1.[Cl-] [MT, reference compound] | – | – | – | – | – | – | specificity became worse | decreased by more than half | – | viable cells (hMSCs [5]; hMSCs, 5 μM, 24 hours): less than 10%; time to stain living cells (hMSCs [6]): longer time
